{"source": "patent US20230158001A1", "about": "“PHARMACEUTICAL COMPOSITION COMPRISING BENZIMIDAZOLE DERIVATIVE COMPOUND” (HK INNO.N CORPORATION, priority 2020, published 2023)", "key": {"[1]": {"assay": "clinical", "parameters": "dose or concentration left out as unconfirmed", "method": "(§1) The pharmacokinetic interactions of tegoprazan and aceclofenac when administered alone or in combination were evaluated in healthy adult males."}, "[2]": {"assay": "Pharmacokinetic interaction of tegoprazan and aceclofenac, alone or in combination (Cohort 2)", "conditions": "for effect of co-administration on pharmacokinetic properties: co-administration of tegoprazan and aceclofenac compared with administration alone; for Css,max, Geometric LS Mean: 7 days, N = 16", "method": "as §1"}, "[3]": {"assay": "Pharmacokinetic interaction of tegoprazan and celecoxib, alone or in combination (Cohort 3)", "conditions": "for Css,max, Geometric LS Mean: 7 days, N = 13; for effect of co-administration on pharmacokinetic properties: co-administration of tegoprazan and celecoxib compared with administration alone; for AUC: male, human, in vivo"}, "[4]": {"assay": "Pharmacokinetic interaction of tegoprazan and naproxen, alone or in combination (Cohort 1)", "format": "in vivo, human (healthy adult males)", "conditions": "for effect of co-administration on pharmacokinetic properties: co-administration of tegoprazan and naproxen compared with administration alone"}, "[5]": {"tested_on": "naproxen-induced peptic ulcer model", "assay": "Anti-ulcer activity in animal model of acute peptic ulcer induced by naproxen", "format": "in vivo, SD rat", "conditions": "for ED50: Rattus norvegicus, read-out: ED50 (anti-ulcer efficacy)", "procedure": "Specifically, each of tegoprazan (0.1 to 10 mg/kg) and esomeprazole (0.3 to 30 mg/kg) was orally administered to each SD rat that has fasted for 72 hours."}, "[6]": {"conditions": "tegoprazan, Treatment A: 50 mg tegoprazan alone once a day"}, "[7]": {"conditions": "tegoprazan, co-administered with celecoxib vs alone"}, "[8]": {"conditions": "tegoprazan, co-administered with naproxen vs alone"}, "[9]": {"conditions": "tegoprazan, co-administered with aceclofenac vs alone"}}, "data": [{"smiles": "O=C(O)COC(=O)Cc1ccccc1Nc1c(Cl)cccc1Cl", "note": "[Aceclofenac, aceclofenac, reference compound]", "values": [{"measurement": "AUC", "setting": "[1]", "result": 20100, "unit": "ng·h/mL"}, {"measurement": "effect of co-administration on pharmacokinetic properties", "setting": "[2]", "result": "does not affect the pharmacokinetic properties"}]}, {"smiles": "Cc1ccc(-c2cc(C(F)(F)F)nn2-c2ccc(S(N)(=O)=O)cc2)cc1", "note": "[Celecoxib, celecoxib, reference compound]", "values": [{"measurement": "Css,max, Geometric LS Mean", "setting": "[3]; celecoxib, Treatment F: 200 mg celecoxib alone twice a day", "result": 1140, "unit": "ng/mL"}, {"measurement": "Css,max, Geometric LS Mean", "setting": "[3]; celecoxib, Treatment G: 50 mg tegoprazan once a day + 200 mg celecoxib twice a day", "result": 1350, "unit": "ng/mL"}, {"measurement": "effect of co-administration on pharmacokinetic properties", "setting": "[3]", "result": "does not affect the pharmacokinetic properties"}, {"measurement": "AUC", "setting": "[3]; 200 mg", "result": 7800, "unit": "ng·h/mL"}]}, {"smiles": "COc1ccc2cc([C@H](C)C(=O)O)ccc2c1", "note": "[Naproxen, naproxen, reference compound]", "values": [{"measurement": "effect of co-administration on pharmacokinetic properties", "setting": "[4]", "result": "does not affect the pharmacokinetic properties"}, {"measurement": "Css,max, Geometric LS Mean", "setting": "[4]; naproxen, Treatment B: 500 mg naproxen alone twice a day, 7 days, N = 17", "result": 92.34, "unit": "ng/mL"}, {"measurement": "Css,max, Geometric LS Mean", "setting": "[4]; naproxen, Treatment C: 50 mg tegoprazan once a day + 500 mg naproxen twice a day, 7 days, N = 17", "result": 95.60, "unit": "ng/mL"}]}, {"smiles": "Cc1nc2cc(C(=O)N(C)C)cc(O[C@H]3CCOc4cc(F)cc(F)c43)c2[nH]1", "note": "[Tegoprazan, (S)-4-(5,7-difluorochroman-4-yloxy)-N,N,2-trimethyl-1H-benzo[d]imidazole-6-carboxamide]", "values": [{"measurement": "effect of co-administration on pharmacokinetic properties", "setting": "[3]", "result": "does not affect the pharmacokinetic properties"}, {"measurement": "AUC", "setting": "[3]; 50 mg", "result": 2990, "unit": "ng·h/mL"}, {"measurement": "Css,max, Geometric LS Mean", "setting": "[3]; [6]", "result": 663.83, "unit": "ng/mL"}, {"measurement": "Css,max, Geometric LS Mean", "setting": "[3]; tegoprazan, Treatment G: 50 mg tegoprazan once a day + 200 mg celecoxib twice a day", "result": 676.24, "unit": "ng/mL"}, {"measurement": "AUCτ, Geometric LS Mean Ratio (Treatment G/Treatment A), Point Estimate", "setting": "[3]; [7]", "result": 1.0111}, {"measurement": "Css,max, Geometric LS Mean Ratio (Treatment G/Treatment A), Point Estimate", "setting": "[3]; [7]", "result": 1.0187}, {"measurement": "effect of co-administration on pharmacokinetic properties", "setting": "[4]", "result": "does not affect the pharmacokinetic properties"}, {"measurement": "AUC", "setting": "[4]; male, human, in vivo, tegoprazan, Treatment A: 50 mg tegoprazan alone once a day, 7 days, N = 17, read-out: AUCτ, Geometric LS Mean", "result": 2650, "unit": "ng·h/mL"}, {"measurement": "Css,max, Geometric LS Mean", "setting": "[4]; tegoprazan, Treatment A: 50 mg tegoprazan alone once a day, 7 days, N = 17", "result": 512.79, "unit": "ng/mL"}, {"measurement": "Css,max, Geometric LS Mean", "setting": "[4]; tegoprazan, Treatment C: 50 mg tegoprazan once a day + 500 mg naproxen twice a day, 7 days, N = 17", "result": 505.59, "unit": "ng/mL"}, {"measurement": "AUCτ, Geometric LS Mean Ratio (Treatment C/Treatment A), Point Estimate", "setting": "[4]; [8]", "result": 1.0105}, {"measurement": "Css,max, Geometric LS Mean Ratio (Treatment C/Treatment A), Point Estimate", "setting": "[4]; [8]", "result": 0.9859}, {"measurement": "ED50", "setting": "[5]", "result": 0.123, "unit": "mg/kg"}, {"measurement": "anti-ulcer activity", "setting": "[5]; naproxen-induced peptic ulcer model, SD rats, oral 0.1 to 10 mg/kg", "result": "excellent anti-ulcer activity"}, {"measurement": "effect of co-administration on pharmacokinetic properties", "setting": "[2]", "result": "does not affect the pharmacokinetic properties"}, {"measurement": "AUC", "setting": "[2]; male, human, in vivo, 50 mg", "result": 2680, "unit": "ng·h/mL"}, {"measurement": "Css,max, Geometric LS Mean", "setting": "[2]; [6]", "result": 562.13, "unit": "ng/mL"}, {"measurement": "Css,max, Geometric LS Mean", "setting": "[2]; tegoprazan, Treatment E: 50 mg tegoprazan once a day + 100 mg aceclofenac twice a day", "result": 529.98, "unit": "ng/mL"}, {"measurement": "AUCτ, Geometric LS Mean Ratio (Treatment E/Treatment A), Point Estimate", "setting": "[2]; [9]", "result": 1.0269}, {"measurement": "Css,max, Geometric LS Mean Ratio (Treatment E/Treatment A), Point Estimate", "setting": "[2]; [9]", "result": 0.9428}]}, {"smiles": "COc1ccc2nc([S@@+]([O-])Cc3ncc(C)c(OC)c3C)[nH]c2c1", "note": "[esomeprazole, reference compound]", "values": [{"measurement": "ED50", "setting": "[5]", "result": 4.12, "unit": "mg/kg"}]}]}
